According to PMC4844192 (ACS chemical biology, 2015):

Columns and labels:
mouse xenograft models = conditions: compared with untreated mice; cited from earlier work
CtBP [1] = conditions: cited from earlier work
[2] = test system: HCT116 colon cancer cells; conditions: through displacement of CtBP2 from the Bik promoter; cited from earlier work
CtBP2 = CtBP2 (Homo sapiens, UniProt P56545); test: Isothermal titration calorimetry; format: binding
CtBP [3] = format: biochemical, human
CtBP1 = CtBP1 (Homo sapiens, UniProt Q13363); test: Isothermal titration calorimetry; conditions: CtBP1, pH 7.5, displacement ITC with HIPP
CtBP [4] = conditions: cited from earlier work; remark: listed apart in the source
[5] = CtBP2, pH 8.5, competitive displacement ITC with HIPP

## CSCCC(=O)C(=O)O [MTOB, 4-methylthio 2-oxobutyric acid]
Mouse xenograft models
  survival: prolonged survival
  tumor burden: decreased tumor burden
CtBP [1]
  concentrations required for (substrate) inhibition of CtBP: > 300 µM
[2]
  apoptosis: induced apoptosis
CtBP2; CtBP2, direct titration, low signal
  binding dissociation constant, direct ITC measurement: low millimolar range
CtBP2; [5]
  ΔG: -3.4 kcal
  ΔH: -3.4 ± 0.34 kcal/mol
  −TΔS: 0.0 kcal/mol
CtBP [3]; MTOB in excess
  substrate inhibition: exhibits substrate inhibition when in excess
CtBP1
  ΔG: -3.9 kcal
  ΔH: -11.3 ± 0.83 kcal/mol
  −TΔS: 7.4 kcal/mol

## NC(=O)C1=CN([C@@H]2O[C@H](COP(=O)(O)OP(=O)(O)OC[C@H]3O[C@@H](n4cnc5c(N)ncnc54)[C@H](O)[C@@H]3O)[C@@H](O)[C@H]2O)C=CC1 [NADH]
CtBP [4]
  affinity of CtBP for NADH relative to NAD+: 100 fold

## O=C(O)C(=O)Cc1ccccc1 [PPy, phenylpyruvate]
CtBP2; CtBP2, low PPy concentrations, CtBP2 precipitation prevented quantitation
  binding relative to MTOB (ITC injection peaks): tighter than MTOB
CtBP [3]; CtBP dehydrogenase function, after 15 minutes
  IC50: 135 µM
